Experimental data: ChEMBL document CHEMBL1139644, “Pharmacophore-based design, synthesis, biological evaluation, and 3D-QSAR studies of aryl-piperazines as alpha(1)-adrenoceptor antagonists” (Bioorg Med Chem Lett, 2005)

Target: T1, Adrenergic receptor alpha-1 (Rattus norvegicus, UniProt P15823+P23944+P43140)
T1 sequence (P15823 whole entry): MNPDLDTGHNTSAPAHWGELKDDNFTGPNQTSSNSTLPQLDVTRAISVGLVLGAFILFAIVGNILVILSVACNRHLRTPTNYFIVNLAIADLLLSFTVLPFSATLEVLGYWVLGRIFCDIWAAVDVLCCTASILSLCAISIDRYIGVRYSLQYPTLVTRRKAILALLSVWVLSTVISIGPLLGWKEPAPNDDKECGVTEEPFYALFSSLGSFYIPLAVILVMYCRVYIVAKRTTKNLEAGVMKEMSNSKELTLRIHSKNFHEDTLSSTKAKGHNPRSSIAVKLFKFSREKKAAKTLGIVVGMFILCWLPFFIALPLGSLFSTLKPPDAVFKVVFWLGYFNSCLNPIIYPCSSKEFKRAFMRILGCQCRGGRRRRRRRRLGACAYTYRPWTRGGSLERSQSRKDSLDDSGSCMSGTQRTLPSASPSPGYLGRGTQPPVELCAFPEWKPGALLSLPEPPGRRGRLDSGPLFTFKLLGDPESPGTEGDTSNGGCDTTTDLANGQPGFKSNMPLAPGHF
T1 sequence (P23944 whole entry): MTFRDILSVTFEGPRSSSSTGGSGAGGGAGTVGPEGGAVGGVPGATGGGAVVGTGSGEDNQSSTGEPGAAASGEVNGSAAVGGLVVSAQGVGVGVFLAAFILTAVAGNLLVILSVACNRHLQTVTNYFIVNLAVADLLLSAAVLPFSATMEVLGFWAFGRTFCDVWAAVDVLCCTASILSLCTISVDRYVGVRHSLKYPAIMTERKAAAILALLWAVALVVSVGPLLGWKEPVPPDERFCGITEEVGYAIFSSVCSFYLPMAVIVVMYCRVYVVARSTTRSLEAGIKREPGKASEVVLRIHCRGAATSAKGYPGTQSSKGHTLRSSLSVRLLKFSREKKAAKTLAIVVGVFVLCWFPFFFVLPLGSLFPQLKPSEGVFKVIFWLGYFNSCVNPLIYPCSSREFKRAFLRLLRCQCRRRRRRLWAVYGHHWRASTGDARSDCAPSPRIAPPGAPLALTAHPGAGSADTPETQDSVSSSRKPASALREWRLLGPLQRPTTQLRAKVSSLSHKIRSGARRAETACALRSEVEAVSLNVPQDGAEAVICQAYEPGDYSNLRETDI
T1 sequence (P43140 whole entry): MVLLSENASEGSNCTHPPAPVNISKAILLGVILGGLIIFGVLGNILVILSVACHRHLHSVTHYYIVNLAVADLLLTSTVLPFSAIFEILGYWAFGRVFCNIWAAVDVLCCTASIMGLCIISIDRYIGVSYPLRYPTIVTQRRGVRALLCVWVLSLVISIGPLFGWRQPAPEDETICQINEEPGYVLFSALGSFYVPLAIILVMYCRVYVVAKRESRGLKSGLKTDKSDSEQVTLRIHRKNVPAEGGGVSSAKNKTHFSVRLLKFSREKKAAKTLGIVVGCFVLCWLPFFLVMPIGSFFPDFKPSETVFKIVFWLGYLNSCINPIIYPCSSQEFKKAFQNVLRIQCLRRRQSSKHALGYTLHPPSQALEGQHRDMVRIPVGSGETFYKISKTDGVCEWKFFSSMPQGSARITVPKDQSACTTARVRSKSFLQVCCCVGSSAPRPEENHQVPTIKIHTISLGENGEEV
Assay: Antagonistic activity for Alpha-1 adrenergic receptor was measured as inhibition of phenylephrine-[…] contractions in isolated Sprague-Dawley rat anacoccygeal muscles
Assay type: functional

For `COc1ccc(N2CCN(CCNC(=O)c3cc4ccccc4oc3=O)CC2)cc1`, which pA2 is on record?
The pA2 was 7.74.

`COc1ccc(Cl)cc1N1CCN(CCNC(=O)c2ccncc2)CC1` was tested. Which pA2 did it give?
The pA2 was 7.18.

How did the pA2 turn out when `COc1ccc(N2CCN(CCNC(=O)c3ccco3)CC2)cc1` was run?
The pA2 was 7.85.

How did the pA2 turn out when `Cc1ccc(N2CCN(CCNC(=O)c3cccnc3)CC2)cc1` was run?
The pA2 was 6.53.

How did the pA2 turn out when `Cc1ccc(N2CCN(CCNC(=O)c3cc4ccccc4o3)CC2)cc1` was run?
The pA2 was 6.92.

For `COc1ccc(Cl)cc1N1CCN(CCNC(=O)c2ccco2)CC1`, which pA2 is on record?
The pA2 was 8.56.

With `COc1ccccc1N1CCN(CCNC(=O)c2cc3ccccc3oc2=O)CC1` as the molecule, how does the pA2 read?
The pA2 was 7.71.

For `COc1ccc(Cl)cc1N1CCN(CCNC(=O)c2cc3ccccc3o2)CC1`, which pA2 is on record?
The pA2 was 5.63.

For `COc1ccccc1N1CCN(CCNC(=O)c2ccco2)CC1`, which pA2 is on record?
The pA2 was 9.12.

How did the pA2 turn out when `Cc1ccc(N2CCN(CCNC(=O)c3cccnc3)CC2)c(C)c1` was run?
Its pA2 is 5.94.

How did the pA2 turn out when `COc1ccc(Cl)cc1N1CCN(CCNC(=O)c2cccnc2)CC1` was run?
The pA2 was 5.56.

How did the pA2 turn out when `Cc1ccc(N2CCN(CCNC(=O)c3ccco3)CC2)cc1` was run?
The pA2 was 6.47.

With `Cc1ccc(N2CCN(CCNC(=O)c3ccncc3)CC2)c(C)c1` as the molecule, how does the pA2 read?
Its pA2 is 7.07.

`Cc1ccc(N2CCN(CCNC(=O)c3ccncc3)CC2)cc1` was tested. Which pA2 did it give?
Its pA2 is 6.5.

`Cc1ccc(N2CCN(CCNC(=O)c3ccco3)CC2)c(C)c1` was tested. Which pA2 did it give?
Its pA2 is 7.72.

For `COc1ccc(Cl)cc1N1CCN(CCNC(=O)c2cc3ccccc3oc2=O)CC1`, which pA2 is on record?
Its pA2 is 7.31.

Which pA2 does the source give for `Cc1ccc(N2CCN(CCNC(=O)c3cc4ccccc4o3)CC2)c(C)c1` here?
Its pA2 is 7.36.

How did the pA2 turn out when `COc1ccc(N2CCN(CCNC(=O)c3cccnc3)CC2)cc1` was run?
Its pA2 is 5.79.

`COc1cccc(N2CCN(CCNC(=O)c3ccco3)CC2)c1` was tested. Which pA2 did it give?
Its pA2 is 8.56.

`COc1ccccc1N1CCN(CCNC(=O)c2cccnc2)CC1` was tested. Which pA2 did it give?
Its pA2 is 7.87.

Which pA2 does the source give for `COc1ccc(N2CCN(CCNC(=O)c3ccncc3)CC2)cc1` here?
Its pA2 is 5.95.
